Measured values as given in US8003660B2, “Modulators of muscarinic receptors” (Vertex Pharmaceuticals Incorporated, priority 2006, dated 2011).

Tests used:
Format in all cases: cell-based
M3 muscarinic receptor = target: T1, M3 muscarinic receptor (Homo sapiens, UniProt P20309); test: Functional mobilization of intracellular calcium (FLIPR) in CHO cells expressing M3; conditions: for M3 Activity: CHO cells expressing M3, FLIPR calcium assay; for Emax: CHO, 100% efficacy = maximum response obtained with the Carbachol control
T1 construct: expressed in transfected cells; host or cells: CHO (M3-CHO)
T1 sequence (P20309 whole entry): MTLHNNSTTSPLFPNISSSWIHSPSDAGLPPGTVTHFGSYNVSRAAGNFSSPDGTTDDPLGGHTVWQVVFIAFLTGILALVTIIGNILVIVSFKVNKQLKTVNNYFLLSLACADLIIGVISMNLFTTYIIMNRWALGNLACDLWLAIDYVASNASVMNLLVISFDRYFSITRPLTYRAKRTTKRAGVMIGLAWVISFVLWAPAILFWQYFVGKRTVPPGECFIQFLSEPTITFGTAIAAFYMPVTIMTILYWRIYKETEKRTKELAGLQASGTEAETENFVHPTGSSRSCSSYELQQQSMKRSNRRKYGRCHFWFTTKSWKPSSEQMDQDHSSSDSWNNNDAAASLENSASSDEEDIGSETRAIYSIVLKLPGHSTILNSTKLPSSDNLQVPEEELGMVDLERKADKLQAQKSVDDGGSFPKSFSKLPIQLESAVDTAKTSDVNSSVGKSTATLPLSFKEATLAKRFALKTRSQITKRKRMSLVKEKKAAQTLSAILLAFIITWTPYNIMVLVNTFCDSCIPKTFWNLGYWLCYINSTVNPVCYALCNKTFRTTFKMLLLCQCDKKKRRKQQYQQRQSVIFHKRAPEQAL
In short: (§1)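 Recombinant CHO cells loaded with Fluo-3 AM or Calcium 3 dye in pH 7.4 buffer containing 1 mM probenecid, with 0.5% final DMSO. For agonism, compound is added directly. For inhibition, it is preincubated 15 min, or co-applied, before carbachol at EC80. FLIPR fluorescence (ex 488, em 540 nm) is recorded for 60 s.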

M1 muscarinic receptor = target: T2, M1 muscarinic receptor (Homo sapiens, UniProt P11229); test: Functional mobilization of intracellular calcium (FLIPR) in CHO cells expressing M1; conditions: for M1 Activity: CHO cells expressing M1, FLIPR calcium assay; for Emax: CHO, 100% efficacy = maximum response obtained with the Carbachol control
T2 construct: expressed in transfected cells; host or cells: CHO (M1-CHO)
T2 sequence (P11229 1-460): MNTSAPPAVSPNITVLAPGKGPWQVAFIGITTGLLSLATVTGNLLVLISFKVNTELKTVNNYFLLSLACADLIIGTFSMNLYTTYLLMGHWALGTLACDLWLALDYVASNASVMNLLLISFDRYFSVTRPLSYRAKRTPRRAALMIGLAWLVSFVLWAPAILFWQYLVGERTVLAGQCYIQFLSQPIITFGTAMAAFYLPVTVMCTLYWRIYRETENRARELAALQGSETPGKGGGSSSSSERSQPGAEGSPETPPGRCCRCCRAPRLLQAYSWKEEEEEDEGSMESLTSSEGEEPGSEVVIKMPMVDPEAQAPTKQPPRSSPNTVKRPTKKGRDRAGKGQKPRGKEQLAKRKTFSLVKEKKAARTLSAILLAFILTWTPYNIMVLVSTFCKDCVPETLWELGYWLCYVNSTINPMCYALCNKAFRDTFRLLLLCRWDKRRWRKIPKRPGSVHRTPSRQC
In short: as §1

M4 muscarinic receptor = target: T3, M4 muscarinic receptor (Homo sapiens, UniProt P08173); test: Functional mobilization of intracellular calcium (FLIPR) in CHO cells expressing M4; conditions: for M4 Activity: CHO cells expressing M4, FLIPR calcium assay; for Emax: CHO, 100% efficacy = maximum response obtained with the Carbachol control
T3 construct: expressed in transfected cells; host or cells: CHO (M4-CHO)
T3 sequence (P08173 1-479): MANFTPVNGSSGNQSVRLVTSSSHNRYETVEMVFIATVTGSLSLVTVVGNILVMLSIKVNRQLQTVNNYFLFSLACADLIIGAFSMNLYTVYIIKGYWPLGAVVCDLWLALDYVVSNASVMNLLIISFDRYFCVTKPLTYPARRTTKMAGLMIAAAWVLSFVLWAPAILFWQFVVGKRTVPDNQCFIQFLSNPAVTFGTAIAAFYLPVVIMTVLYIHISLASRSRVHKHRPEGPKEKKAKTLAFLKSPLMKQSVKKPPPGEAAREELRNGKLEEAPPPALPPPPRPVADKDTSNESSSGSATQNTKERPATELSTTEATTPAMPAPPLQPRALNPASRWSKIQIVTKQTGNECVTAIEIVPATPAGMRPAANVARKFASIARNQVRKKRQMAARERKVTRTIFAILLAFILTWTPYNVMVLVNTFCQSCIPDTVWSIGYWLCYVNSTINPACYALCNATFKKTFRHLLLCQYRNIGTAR
In short: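 Read-out: FLIPR fluorescence (ex 488, em 540 nm) over 60 s. Recombinant CHO lines are dye-loaded (Fluo-3 AM or Calcium 3) with 1 mM probenecid. For antagonist mode, compound is pre-incubated 15 min, or co-applied, then carbachol is added at 3× EC80 per subtype.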

M2 muscarinic receptor = target: T4, M2 muscarinic receptor (Homo sapiens, UniProt P08172); test: Functional mobilization of intracellular calcium (FLIPR) in CHO cells expressing M2; conditions: for M2 Activity: CHO cells expressing M2, FLIPR calcium assay; for Emax: CHO, 100% efficacy = maximum response obtained with the Carbachol control
T4 construct: expressed in transfected cells; host or cells: CHO (M2-CHO)
T4 sequence (P08172 1-466): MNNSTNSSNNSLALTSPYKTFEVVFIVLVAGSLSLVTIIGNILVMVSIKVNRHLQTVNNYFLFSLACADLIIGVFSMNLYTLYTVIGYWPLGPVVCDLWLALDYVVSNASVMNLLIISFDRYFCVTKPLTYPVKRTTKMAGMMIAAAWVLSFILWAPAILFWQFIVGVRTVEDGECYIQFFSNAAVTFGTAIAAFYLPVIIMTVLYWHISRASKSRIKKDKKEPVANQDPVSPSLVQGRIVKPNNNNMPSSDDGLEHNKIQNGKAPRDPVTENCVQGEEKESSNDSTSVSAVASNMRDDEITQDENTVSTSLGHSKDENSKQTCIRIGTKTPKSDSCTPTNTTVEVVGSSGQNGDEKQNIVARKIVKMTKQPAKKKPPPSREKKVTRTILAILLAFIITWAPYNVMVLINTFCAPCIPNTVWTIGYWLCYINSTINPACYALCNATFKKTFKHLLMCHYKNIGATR
In short: as §1

| Compound | M3 Activity (M3 muscarinic receptor) | Emax (M3 muscarinic receptor) [%] | M1 Activity (M1 muscarinic receptor) | Emax (M1 muscarinic receptor) [%] | M4 Activity (M4 muscarinic receptor) | Emax (M4 muscarinic receptor) [%] | M2 Activity (M2 muscarinic receptor) | Emax (M2 muscarinic receptor) [%] |
| --- | --- | --- | --- | --- | --- | --- | --- | --- |
| CCOCC(=O)N[C@H]1CCC2(CCN(CCC(C)(C)C)CC2)c2cc(F)ccc21 [compound 196] | + (activity was measured to be greater than 5.0 μM) | < 25 | +++ (activity was measured to be less than 2.0 μM) | 25 to 100 | +++ (activity was measured to be less than 2.0 μM) | 25 to 100 | +++ (activity was measured to be less than 2.0 μM) | 25 to 100 |
| CC(C)(C)CCN1CCC2(CC[C@H](NC(=O)CCCN3CCCC3=O)c3ccccc32)CC1 [compound 197] | + (activity was measured to be greater than 5.0 μM) | < 25 | +++ (activity was measured to be less than 2.0 μM) | 25 to 100 | +++ (activity was measured to be less than 2.0 μM) | 25 to 100 | +++ (activity was measured to be less than 2.0 μM) | 25 to 100 |
| CCN(C(=O)Cc1ccccn1)[C@H]1CCC2(CCN(CCC(C)(C)C)CC2)c2ccccc21 [compound 198] | + (activity was measured to be greater than 5.0 μM) | < 25 | +++ (activity was measured to be less than 2.0 μM) | 25 to 100 | +++ (activity was measured to be less than 2.0 μM) | 25 to 100 | ++ (activity was measured to be from 2.0 μM to 5.0 μM) | < 25 |
| CCOC(=O)N(C)[C@H]1CCC2(CCN(CCC(C)(C)C)CC2)c2ccccc21 [compound 199] | + (activity was measured to be greater than 5.0 μM) | < 25 | ++ (activity was measured to be from 2.0 μM to 5.0 μM) | < 25 | +++ (activity was measured to be less than 2.0 μM) | 25 to 100 | + (activity was measured to be greater than 5.0 μM) | < 25 |
| CC(=O)NCC(=O)N[C@@H]1CCC2(CCN(CCC(C)(C)C)CC2)c2cc(F)ccc21 [compound 200] | + (activity was measured to be greater than 5.0 μM) | < 25 | +++ (activity was measured to be less than 2.0 μM) | 25 to 100 | +++ (activity was measured to be less than 2.0 μM) | 25 to 100 | +++ (activity was measured to be less than 2.0 μM) | 25 to 100 |
| CC(C)(C)CCN1CCC2(CC[C@H](NC(=O)C3CCOCC3)c3ccc(F)cc32)CC1 [compound 202] | + (activity was measured to be greater than 5.0 μM) | < 25 | +++ (activity was measured to be less than 2.0 μM) | 25 to 100 | +++ (activity was measured to be less than 2.0 μM) | 25 to 100 | + (activity was measured to be greater than 5.0 μM) | < 25 |
| CC(C)(C)CCN1CCC2(CC[C@H](NC(=O)[C@H]3CCC(=O)N3)c3ccc(F)cc32)CC1 [compound 203] | + (activity was measured to be greater than 5.0 μM) | < 25 | +++ (activity was measured to be less than 2.0 μM) | 25 to 100 | +++ (activity was measured to be less than 2.0 μM) | 25 to 100 | +++ (activity was measured to be less than 2.0 μM) | 25 to 100 |
| CC(=O)N[C@H]1CCC2(CCN(C(C)CC(C)(C)C)CC2)c2ccccc21 (stereo partly drawn) [compound 204] | + (activity was measured to be greater than 5.0 μM) | < 25 | +++ (activity was measured to be less than 2.0 μM) | 25 to 100 | +++ (activity was measured to be less than 2.0 μM) | 25 to 100 | + (activity was measured to be greater than 5.0 μM) | < 25 |
| CC(=O)CCC(=O)N[C@@H]1CCC2(CCN(CCC(C)(C)C)CC2)c2ccccc21 [compound 205] | + (activity was measured to be greater than 5.0 μM) | < 25 | +++ (activity was measured to be less than 2.0 μM) | 25 to 100 | +++ (activity was measured to be less than 2.0 μM) | 25 to 100 | + (activity was measured to be greater than 5.0 μM) | < 25 |
| CC(C)CCN1CCC2(CC[C@H](N(C)C(=O)N(C)C)c3ccccc32)CC1 [compound 206] | + (activity was measured to be greater than 5.0 μM) | < 25 | + (activity was measured to be greater than 5.0 μM) | < 25 | +++ (activity was measured to be less than 2.0 μM) | 25 to 100 | + (activity was measured to be greater than 5.0 μM) | < 25 |
| CCn1ccc(C(=O)N[C@H]2CCC3(CCN(CCC(C)(C)C)CC3)c3ccccc32)n1 [compound 207] | + (activity was measured to be greater than 5.0 μM) | < 25 | ++ (activity was measured to be from 2.0 μM to 5.0 μM) | 25 to 100 | +++ (activity was measured to be less than 2.0 μM) | 25 to 100 | + (activity was measured to be greater than 5.0 μM) | < 25 |
| CC(C)COC(=O)N(C)[C@H]1CCC2(CCN(CCC(C)(C)C)CC2)c2ccccc21 [compound 208] | + (activity was measured to be greater than 5.0 μM) | < 25 | +++ (activity was measured to be less than 2.0 μM) | 25 to 100 | +++ (activity was measured to be less than 2.0 μM) | 25 to 100 | +++ (activity was measured to be less than 2.0 μM) | < 25 |
| CC(C)(C)CCN1CCC2(CC[C@H](NC(=O)C3CCOCC3)c3ccccc32)CC1 [compound 209] | + (activity was measured to be greater than 5.0 μM) | < 25 | +++ (activity was measured to be less than 2.0 μM) | 25 to 100 | +++ (activity was measured to be less than 2.0 μM) | 25 to 100 | + (activity was measured to be greater than 5.0 μM) | < 25 |
| CCN(C(=O)CCC(C)=O)[C@@H]1CCC2(CCN(CCC(C)(C)C)CC2)c2ccccc21 [compound 210] | + (activity was measured to be greater than 5.0 μM) | < 25 | +++ (activity was measured to be less than 2.0 μM) | < 25 | +++ (activity was measured to be less than 2.0 μM) | 25 to 100 | + (activity was measured to be greater than 5.0 μM) | < 25 |
| CCN(C(C)=O)[C@H]1CCC2(CCN(CCC(C)(C)C)CC2)c2ccccc21 [compound 211] | + (activity was measured to be greater than 5.0 μM) | < 25 | +++ (activity was measured to be less than 2.0 μM) | 25 to 100 | +++ (activity was measured to be less than 2.0 μM) | 25 to 100 | + (activity was measured to be greater than 5.0 μM) | < 25 |
